Measurements: paper PMC6222558, “Synthesis and Evolution of Berberine Derivatives as a New Class of Antiviral Agents against Enterovirus 71 through the MEK/ERK Pathway and Autophagy” (Molecules : A Journal of Synthetic Chemistry and Natural …, 2018)
Where a name gives a salt, the structure may show the parent alone.

Columns and labels:
[1] = system: EV71 SHZH98 strain (genotype C4); test: CPE inhibition assay for anti-EV71, SHZH98 strain; assay type: cell-based, enterovirus 71 (EV71); settings: Enterovirus A, EV71; Vero cells; CPE; calculated on the organic part; n = 3; read-out: SHZH98 Strain IC50
Description: (§1) Thus, all newly synthesized BBR analogues were screened for their anti-EV71 potencies in African green monkey kidney (Vero) cells taking BBR as the positive control. EV71 strains used in the present study include different genotype strains, such as H strain (VR-1432, genotype C2), BrCr strain (VR-1775, genotype A), and JS-52 and SHZH98 (genotype C4). The potency against EV71 strains above mentioned of each tested compound was evaluated by the combination of its IC50 and selectivity index (SI) value as the important therapeutic indication.
(§2) Vero cells were purchased from the American Type Culture Collection (ATCC, […], MD, USA), and were cultured in Minimum Essential Medium (MEM) supplemented with 10% fetal bovine serum (FBS) (GIBCO, Grand Island, NY, USA) and antibiotics (100 U/mL penicillin and […] streptomycin) at 37 °C in a 5% CO2 incubator. EV71 strain SHZH98 isolated from the throat swab sample of an HFMD case occurring in 1998 in China was kindly provided by Dr. Qi Jin (Institute of Pathogen Biology, Chinese Academy of Medical Science and Peking Union Medical School, Beijing, China), and JS-52 strain was a kind gift from Dr. Xiangzhong Ye (Beijing Wantai Biological Pharmacy Enterprise Co., Ltd., Beijing, China). The EV71 BrCr and H strains were purchased from the ATCC. All of EV71 strains were passaged in Vero cells.
(§3) The anti-EV71 activities of all tested compounds were detected by the virus-induced CPE assay. Briefly, cells (3 × 10^4 cells/well) were plated into 96-well culture plates and incubated for 16 h. Then, remove the medium and infected cells with EV71 of 100 × TCID50 (50% tissue culture infective doses) in serum-free medium for 1 h at 37 °C. After that, the unbound viruses were removed and various concentrations of tested compounds were supplemented for incubation of another 72 h. […] TC50 defined as the concentration that leads to the 50% of CPE which determined by the same method in 72 h. In addition, the cells were stained the cells were colored with 0.5% crystal violet in 20% ethanol for 15 min at room temperature and the cells were imaged after rinsed with PBS.

[2] = system: EV71 JS-52 strain (genotype C4); test: CPE inhibition assay for anti-EV71, JS-52 strain; assay type: cell-based, enterovirus 71 (EV71); settings: Enterovirus A, EV71; Vero cells; CPE; calculated on the organic part; n = 3; read-out: JS-52 Strain IC50
Description: as §1, §2, §3

[3] = system: MEK/ERK signaling pathway; set-up: method as in PMID 28081706; settings: cited from earlier work
Vero cells = test: Cytotoxicity assay (CCK) in Vero cells; assay type: cell-based, African green monkey; settings: Vero cells; calculated on the organic part; n = 3
Description: as §2
Cytotoxicity of all target compounds in Vero cells was analyzed by CCK (TransGen Biotech, Beijing, China) assay. In brief, cells in exponential phase (3 × 10^4 cells/well) were seeded into 96-well culture plates and incubated overnight. Then, the medium was removed and different concentrations of all target compounds were applied in duple. After 48 h incubation, the cytotoxicity of all target compounds was determined by CCK assay. The signals were read at 450 nm on Enspire (Perkin Elmer, Waltham, MA, USA). The TC50 was defined as the concentration that inhibits 50% cellular growth in comparison with the controls. It is calculated by the Reed and Muench method.

[4] = system: EV71 BrCr strain (VR-1775, genotype A); test: CPE inhibition assay for anti-EV71, BrCr strain; assay type: cell-based, enterovirus 71 (EV71); settings: Enterovirus A, EV71; Vero cells; CPE; calculated on the organic part; n = 3; read-out: BrCr Strain IC50
Description: as §1, §2, §3

[5] = system: EV71 H strain (VR-1432, genotype C2); test: CPE inhibition assay for anti-EV71, H strain; assay type: cell-based, enterovirus 71 (EV71); settings: Enterovirus A, EV71; Vero cells; CPE; calculated on the organic part; n = 3; read-out: H Strain IC50
Description: as §1, §2, §3

[6] = system: four different genotype enterovirus 71 (EV71) strains; test: CPE assay, summary over the four EV71 strains; assay type: cell-based; settings: Enterovirus A, EV71, read-out: IC50 (Figure 1)
Description: as §1, §3

Compound: COc1cccc(C(=O)COc2cc3c(cc2OC)-c2cc4ccc(OC)c(OC)c4c[n+]2CC3)c1 (as salt: chloride) [5e, 2,9,10-Trimethoxy-3-m-methoxyphenylformylmethylenoxy protoberberine chloride]
- melting point: 218 to 220 °C

Compound: COc1cc2c(cc1OCC(=O)c1ccc(C(F)(F)F)cc1)CC[n+]1cc3c(OC)c(OC)ccc3cc1-2 (as salt: chloride) [5f, 2,9,10-Trimethoxy-3-p-trifloromethylphenylformylmethylenoxy protober berine chloride]
- melting point: 213 to 215 °C

Compound: COc1cc2c(cc1OC(=O)OCc1ccccc1)CC[n+]1cc3c(OC)c(OC)ccc3cc1-2 (as salt: chloride) [5g, 2,9,10-Trimethoxy-3-benzyloxyformyloxy protoberberine chloride]
- melting point: 140 to 142 °C

Compound: COc1ccc2cc3[n+](cc2c1OC)CCc1cc2c(cc1-3)OCO2 [BBR, berberine]
- IC50 [1]: 28.2 µM
- IC50 [2]: 14 µM
- phosphorylation of MEK/ERK induced by EV71 infection [3]: could inhibit the phosphorylation of MEK/ERK
- TC50 (median toxic concentration) (Vero cells): 147 µM
- IC50 [4]: 9.45 µM
- IC50 [5]: 21.2 µM
- IC50 [6]: 8.55 to 25.5 µM
